Data as given in patent US20170021023A1 (RESDEVCO RESEARCH AND DEVELOPMENT CO. LTD., priority 2005, published 2017).

How the values were obtained:
dry eye patients = assay: Fluorescein Break Up Time (BUT) study in dry eye patients; type: in vivo, human; conditions: concentration of 0.002%
From the text: The advantages resulting from the addition of a surface active agent include a decrease in the surface tension of the aqueous solution, thereby increasing the spread. […] It is accepted that a BUT of 10 sec. or less indicates dry eye syndrome; see Example 11 below.

epithelial conical cells = assay: Rabbit eye drop treatment for 3 months, electron microscopy of epithelial cells; type: in vivo, rabbits; conditions: preservatives such as benzalkonium chloride, cetrimonium bromide, sodium ethylene diamine tetraacetate
Method: 3 rabbits were treated for 3 months twice daily with eye drops, adjusted to pH 7.0. The average cross section of the epithelial conical cells and the percentage of damaged cells were evaluated by electron microscopy.

Row | Molecule | Effect on diminished Break Up Time (BUT) (dry eye patients) | Effect on conical cell damage caused by preservatives (epithelial conical cells)
1 | polysorbate 80 | increases the diminished Break Up Time (BUT) | –
2 | OCC(O)CO [glycerol] | – | counteracts conical cell damage
